Experimental data as given in ChEMBL document CHEMBL5223140, “Highly potent anti-inflammatory, analgesic and antioxidant activities of 3,5-disubstituted tetrahydro-2H-1,3,5-thiadiazine thiones” (Bioorg Med Chem Lett, 2023).

Key:
Format in all cases: functional
Homo sapiens = species: Homo sapiens; experiment: Antiinflammatory activity against human blood incubated for 15 mins by thermostatic luminometric chemiluminescence based oxidative burst assay
[1] = Antioxidant activity assessed as DPPH radical scavenging activity incubated for 30 mins by spectrophotometric analysis
Mus musculus [2] = experiment: Analgesic activity against acetic acid induced mouse model assessed as number of writhes at 5 mg/kg, po administrated for 30 mins followed by acetic acid addition and measured after 20 mins by abdominal constriction test; conditions: time 50 min
Mus musculus [3] = experiment: Analgesic activity against acetic acid induced mouse model assessed as reduction in writhing at 5 mg/kg, po administrated for 30 mins followed by acetic acid addition and measured after 20 mins by abdominal constriction test; design: scale not given: the % may be the effect or the level left; conditions: time 50 min
Mus musculus [4] = experiment: Analgesic activity against acetic acid induced mouse model assessed as number of writhes at 10 mg/kg, po administrated for 30 mins followed by acetic acid addition and measured after 20 mins by abdominal constriction test; conditions: time 50 min
Mus musculus [5] = experiment: Analgesic activity against acetic acid induced mouse model assessed as reduction in writhing at 10 mg/kg, po administrated for 30 mins followed by acetic acid addition and measured after 20 mins by abdominal constriction test; design: scale not given: the % may be the effect or the level left; conditions: time 50 min
[6] = Homo sapiens, Blood, 0.25 h, read-out: IC50

Structure (SMILES) | IC50 (Homo sapiens; [6]) [µM] | IC50 [1] [µM] | also measured
CCCN1CN(CC(=O)OCC)CSC1=S | 7.1 | 87.5 | Activity (Mus musculus [2]): 29.25; Activity (Mus musculus [3]): 32.05%
CCN1CSC(=S)N(CC(=O)O)C1 |  |  | IC50 (Homo sapiens): Not Active
CCCCN1CN(CC(=O)OCC)CSC1=S | 14.4 |  | 
C[C@H](c1ccccc1)N1CSC(=S)N([C@H](C)c2ccccc2)C1 |  | 65.9 | Activity (Mus musculus [2]): 39; Activity (Mus musculus [3]): 9.3%
COc1ccc2c(c1)c(CC(=O)O)c(C)n2C(=O)c1ccc(Cl)cc1 [INDOMETHACIN] |  |  | Activity (Mus musculus [4]): 22.88; Activity (Mus musculus [5]): 48.83%
CCCN1CN(CC(=O)OC)CSC1=S | 32.4 |  | 
CCCCN1CSC(=S)N(CC(=O)O)C1 |  |  | IC50 (Homo sapiens): Not Active
CC(c1ccccc1)N1CN(CCO)CSC1=S (racemic) |  | 77.5 | IC50 (Homo sapiens): Not Active
CCCCN1CSC(=S)N(C(C)c2ccccc2)C1 (racemic) | > 100 |  | 
O=C(O)CN1CN(CCO)CSC1=S |  | 74.6 | IC50 (Homo sapiens): Not Active
CCCCN1CN(CC(=O)O)CSC1=S |  |  | IC50 (Homo sapiens): Not Active
COc1ccc(CN2CN(CC(=O)O)CSC2=S)cc1OC | > 100 | 81.4 | 
CC(C)N1CN(CC(=O)O)CSC1=S |  | 87.5 | IC50 (Homo sapiens): Not Active
CC(C)Cc1ccc(C(C)C(=O)O)cc1 (stereo unspecified) [IBUPROFEN] | 11.2 |  | 
CCCN1CN(CC(=O)OCc2ccccc2)CSC1=S | 4.1 |  | 
C[C@@H](c1ccccc1)N1CSC(=S)N([C@@H](C)c2ccccc2)C1 |  | 69.9 | Activity (Mus musculus [2]): 35; Activity (Mus musculus [3]): 18.6%
CC(c1ccccc1)N1CN(CC(=O)O)CSC1=S (racemic) | 38.5 | 67.7 | 
CCN1CSC(=S)N(CC)C1 | 5.1 |  | Activity (Mus musculus [2]): 40.21; Activity (Mus musculus [3]): 6.97%
CCCN1CSC(=S)N(C(C)c2ccccc2)C1 (racemic) | 16.9 | 69.9 | 
CCCN1CN(CC(=O)O)CSC1=S | 23.8 | 76.8 | 
CCN1CSC(=S)N(C(C)c2ccccc2)C1 (racemic) | > 100 | 61.2 | 
CCN1CN(CC(=O)O)CSC1=S |  |  | IC50 (Homo sapiens): Not Active
CCCN1CSC(=S)N(CC(=O)O)C1 | 39.7 | 93.6 | 
CC(C)N1CSC(=S)N(C(C)c2ccccc2)C1 (racemic) | 7.5 | 78.9 | Activity (Mus musculus [2]): 41.35; Activity (Mus musculus [3]): 4.65%
